In PubChem BioAssay AID1963961 (Molecular Pharmacology Branch, DTP, NCI, 2024):

System: K98450-129-R-PDC multicell spheroids, viability
Assay: Anticancer human tumor K98450-129-R-PDC patient-derived colon adenocarcinoma cell line growth inhibition [PI3K]
Conditions: for IC50: curve of first compound; for viability, T/C: stronger effect = lower value
Procedure, shortened: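 Combination activity was assessed by viability in multicellular tumor spheroids carrying HUVEC and MSC components. Agents were tested with PI3K inhibitors from a Cmax-based top dose (or 10 microM) downward in half-log increments.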
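Further: spheroids exposed to agents for seven days before read-out.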

SMILES: CCN1CCN(Cc2ccc(Nc3ncc(F)c(-c4cc(F)c5nc(C)n(C(C)C)c5c4)n3)nc2)CC1 + Cc1nc(NC(=O)N2CCCC2C(N)=O)sc1-c1ccnc(C(C)(C)C(F)(F)F)c1
- IC50 (second compound 0.0316 µM): > 1000 nM
- IC50 (second compound 0.1 µM): > 1000 nM
- IC50 (second compound 0.316 µM): > 1000 nM
- IC50 (second compound 1 µM): > 1000 nM
- IC50 (second compound 3.16 µM): > 1000 nM
- IC50 (second compound 10 µM): > 1000 nM
- viability, T/C (second compound 0.0316 µM, first compound 0.00316 µM): 115%
- viability, T/C (second compound 0.0316 µM, first compound 0.01 µM): 97.7%
- viability, T/C (second compound 0.0316 µM, first compound 0.0316 µM): 106%
- viability, T/C (second compound 0.0316 µM, first compound 0.1 µM): 91.1%
- viability, T/C (second compound 0.0316 µM, first compound 0.316 µM): 86.9%
- viability, T/C (second compound 0.0316 µM, first compound 1 µM): 94.8%
- viability, T/C (second compound 0.1 µM, first compound 0.00316 µM): 115%
- viability, T/C (second compound 0.1 µM, first compound 0.01 µM): 95.9%
- viability, T/C (second compound 0.1 µM, first compound 0.0316 µM): 99.8%
- viability, T/C (second compound 0.1 µM, first compound 0.1 µM): 93.5%
- viability, T/C (second compound 0.1 µM, first compound 0.316 µM): 96.8%
- viability, T/C (second compound 0.1 µM, first compound 1 µM): 91.1%
- viability, T/C (second compound 0.316 µM, first compound 0.00316 µM): 103%
- viability, T/C (second compound 0.316 µM, first compound 0.01 µM): 102%
- viability, T/C (second compound 0.316 µM, first compound 0.0316 µM): 91.1%
- viability, T/C (second compound 0.316 µM, first compound 0.1 µM): 87.7%
- viability, T/C (second compound 0.316 µM, first compound 0.316 µM): 85.3%
- viability, T/C (second compound 0.316 µM, first compound 1 µM): 96%
- viability, T/C (second compound 1 µM, first compound 0.00316 µM): 98.3%
- viability, T/C (second compound 1 µM, first compound 0.01 µM): 89.4%
- viability, T/C (second compound 1 µM, first compound 0.0316 µM): 91.2%
- viability, T/C (second compound 1 µM, first compound 0.1 µM): 87.4%
- viability, T/C (second compound 1 µM, first compound 0.316 µM): 84.6%
- viability, T/C (second compound 1 µM, first compound 1 µM): 85.6%
- viability, T/C (second compound 3.16 µM, first compound 0.00316 µM): 84.8%
- viability, T/C (second compound 3.16 µM, first compound 0.01 µM): 80.6%
- viability, T/C (second compound 3.16 µM, first compound 0.0316 µM): 86.2%
- viability, T/C (second compound 3.16 µM, first compound 0.1 µM): 84.7%
- viability, T/C (second compound 3.16 µM, first compound 0.316 µM): 79.3%
- viability, T/C (second compound 3.16 µM, first compound 1 µM): 83.5%
- viability, T/C (second compound 10 µM, first compound 0.00316 µM): 73.7%
- viability, T/C (second compound 10 µM, first compound 0.01 µM): 75.9%
- viability, T/C (second compound 10 µM, first compound 0.0316 µM): 70.6%
- viability, T/C (second compound 10 µM, first compound 0.1 µM): 67.5%
- viability, T/C (second compound 10 µM, first compound 0.316 µM): 67%
- viability, T/C (second compound 10 µM, first compound 1 µM): 70.4%
